# Columns and labels:
# [1] = Critical micelle concentration (CMC) estimated with hydrophobic fluorescent dye diphenylhexatriene (DPH); type: physicochemical
# Excerpt: The “Critical Micelle Concentration” (CMC) refers to the concentration of a detergent (e.g., an amphiphile as described herein) in an aqueous solution at which the detergent molecules self-assemble into micelles. Below the CMC, detergents are mostly monomeric; above the CMC, micelle concentration increases linearly with detergent concentration. The CMC is dependent upon many factors and is detergent-specific. The CMC of a detergent can be determined experimentally by measuring the solubilization of a water-insoluble dye or fluorophore while varying the concentration of detergent. A CMC may also be determined by measuring the diminution of the surface tension of an aqueous solution as a function of detergent concentration (CMCs determined by either method correlate with each other). The CMC is determined by extrapolating the plot of solubilization vs. concentration (or surface tension vs. concentration) in the two linear regions above and below the CMC. Where the two lines intersect is the CMC.
# The Critical Micelle Concentrations (CMCs) of compounds of the invention can be determined by standard techniques known to those of skill in the art. For example, CMCs of CAO and DCAO can be determined by monitoring uptake of a fluorescent dye (e.g., a dye such as 1,6-diphenylhexatriene) with increasing detergent concentration, monitored by fluorescence spectroscopy.
# [2] = tested on: T1, LHI-RC complex; assay: Solubilization of LHI-RC complex from R. capsulatus intracytoplasmic membranes (pellet/supernatant absorbance spectra); set-up: species or system Rhodobacter capsulatus; conditions: for SY (%) Solubilization yield of LHI-RC complex from the membrane: 2×CMC for DPA-2, CAO, CAO-1, 10×CMC for other new agents, 50×CMC for DDM and LDAO, 32° C., 30 min
# T1 construct: made in house; host or cells: Rhodobacter capsulatus U43[pUHTM86Bgl], intracytoplasmic membranes
# T1 sequence (P11847 whole entry): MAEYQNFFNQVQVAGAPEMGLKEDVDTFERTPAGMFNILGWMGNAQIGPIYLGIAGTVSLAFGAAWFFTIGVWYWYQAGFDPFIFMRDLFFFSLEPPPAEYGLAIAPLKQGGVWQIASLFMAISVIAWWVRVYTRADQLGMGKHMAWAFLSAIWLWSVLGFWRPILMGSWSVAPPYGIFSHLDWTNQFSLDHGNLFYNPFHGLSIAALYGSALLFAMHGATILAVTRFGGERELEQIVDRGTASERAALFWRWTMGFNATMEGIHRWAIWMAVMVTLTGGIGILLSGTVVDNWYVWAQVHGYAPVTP
# T1 sequence (P19057 whole entry, further chain): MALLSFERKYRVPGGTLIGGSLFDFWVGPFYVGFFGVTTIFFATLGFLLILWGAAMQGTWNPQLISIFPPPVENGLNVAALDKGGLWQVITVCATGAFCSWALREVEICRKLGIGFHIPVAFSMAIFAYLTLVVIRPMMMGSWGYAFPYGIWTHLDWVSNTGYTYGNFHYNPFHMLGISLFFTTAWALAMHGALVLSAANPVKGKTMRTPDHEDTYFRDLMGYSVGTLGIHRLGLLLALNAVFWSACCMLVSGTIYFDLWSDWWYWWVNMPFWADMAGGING
# T1 sequence (P19056 whole entry, further chain): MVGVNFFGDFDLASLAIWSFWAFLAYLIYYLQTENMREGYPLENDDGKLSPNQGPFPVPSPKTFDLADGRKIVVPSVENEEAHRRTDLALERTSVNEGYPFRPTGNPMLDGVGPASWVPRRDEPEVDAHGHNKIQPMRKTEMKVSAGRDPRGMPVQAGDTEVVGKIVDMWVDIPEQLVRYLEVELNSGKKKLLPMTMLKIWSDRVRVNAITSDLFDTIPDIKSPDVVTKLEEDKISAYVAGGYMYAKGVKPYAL
# T1 sequence (P02948 whole entry, further chain): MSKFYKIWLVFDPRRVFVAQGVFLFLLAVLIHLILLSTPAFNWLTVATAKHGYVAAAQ
# T1 sequence (P02950 whole entry, further chain): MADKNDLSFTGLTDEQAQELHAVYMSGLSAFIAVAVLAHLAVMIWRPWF
# Procedure: (§1) These two reagents were chosen as control agents for the assay. For the superassembly solubilization, the intracytoplasmic R. capsulatus membranes enriched in LHI-RC complex were treated with 10×CMC individual new agents except DPA-2; DPA-2 was tested at 2×CMC based on its high CMC value. On the other hand, conventional detergents (LDAO and DDM) were used at 50×CMC due to the small CMC value in terms of wt. %. The solubilized protein portion and insolubilized part containing cellular debris and insolubilized membranes were separated via ultracentrifugation and isolated as the supernatant and pellet, respectively. The absorption spectra of these two portions were taken to assess detergents efficacy on the protein solubilization and stabilization.
# (§2) The solubilization and purification of the R. capsulatus superassembly were conducted according to the published protocol (Chae et al., ChemBioChem 2008, 9, 1706-1709). First, specialized photosynthetic membranes called intracytoplasmic membranes were obtained from an engineered strain of Rhodobacter (R.) capsulatus, U43[pUHTM86Bgl], lacking the light-harvesting complex II (LHII). The solubilization experiment began by thawing and homogenizing frozen aliquots of R. capsulatus membranes at room temperature. The solution was then incubated with mild agitation at 32° C. for 30 min. Subsequently, the solution was further incubated for 30 min after adding individual detergents (2×CMC for DPA-2, CAO and CAO-1, 10×CMC for DPA-1, […], DCAO and DCAO-2, 50×CMC for DDM and LDAO) into 1.0 mL solutions of R. capsulatus superassembly. The solution was then subjected to ultracentrifugation at 310,000 g at 4° C. for 30 min to remove membrane debris.
# (§3) The spectra of solubilized supernatant and solubilized pellet were taken in a range from 650 nm to 950 nm after being homogenized. For the purification of the protein, detergent-solubilized samples were transferred into a new 1.7 mL microcentrifuge tube containing Ni-NTA resin (Qiagen, Inc.; Valencia, Calif.; pre-equilibriated and stored in an equal volume of buffer containing 10 mM Tris, pH 7.8, and 100 mM NaCl). Following one-hour incubation at 4° C. for protein binding, the resins were collected and washed twice with 0.5 mL of binding buffer (a pH 7.8 Tris solution containing DDM at 1×CMC). Purified protein solution were collected by eluting three times with 0.20 mL elution buffer solutions containing 1 M imidazole (otherwise, this buffer was identical to binding buffer; the pH of each solution was readjusted to pH=7.8) and diluted with 0.4 mL of the binding buffer to reach 1.0 mL solution. UV-Vis spectra of the superassembly purified in individual detergents were then taken to assess the stability of the protein.
# [3] = tested on: T1, LHI-RC complex; assay: Long-term stability of LHI-RC complexes, absorbance ratio A875/A680 over 20-day incubation at room temperature; set-up: species or system Rhodobacter capsulatus; conditions: for long-term stability of superassembly (A875/A680), in words: room temperature; for native conformation retained by detergent-purified proteins: after 20 day-incubation at room temperature
# Procedure: The favorable properties of CAO and DCAO in terms of membrane protein stabilization prompted further evaluation of these reagents' ability to stabilize protein superassemblies as a function of time. DDM-purified samples were diluted with solutions containing CAO or LDAO. […] Protein stability was monitored over time at room temperature by measuring absorbance ratios (A875/A680) (absorption at 680 nm arises from the oxidation of bacteriochlorophyll dissociated from LHI upon denaturation). […] Of note, DCAO was not evaluated in this long-term stability of the superassembly due to its high tendency to form a hydrogel at this high concentration.
# R. capsulatus superassembly was purified in DDM according to the protocol described above. The DDM-purified sample was then diluted to the solutions containing individual detergents (CAO, CAO-1, DCAO, DCAO-2, DDM and LDAO). The dilution makes DDM concentration reached far below its CMC and the final individual detergent concentration at CMC+0.04 wt % or CMC+1.0 wt %. The spectra of individual detergents-solubilized LHI-RC complexes were taken in a range of 650 nm to 950 nm at regular intervals over 20 days during the incubation at room temperature. Protein integrity in each sample was assessed via changes in absorbance ratio (A875/A680) with time.
# Similar criteria and protocols were used to judge the ability of amphiphiles to maintain solubilized and purified superassembly for extended periods. In this case, UV Vis-nearIR spectra were recorded at regular intervals. The degradation of the material could be monitored with the A875/A680 absorbance ratio, which decreased with time and sample integrity as the dominant 875 nm absorption of intact LHI disappeared and a 680 nm band appeared, indicating the presence of unbound, oxidized cofactors.
# [4] = tested on: T1, LHI-RC complex; assay: Integrity of detergent-solubilized and Ni-NTA-purified LHI-RC complexes by UV-Vis absorption spectra; set-up: species or system Rhodobacter capsulatus; conditions: purified protein eluted at 1×CMC detergent
# Excerpt: The presence of various types of cofactors such as bacteriochlorophyll and carotenoids embedded in the complexes, thereby providing a well-featured UV-Vis absorption spectrum, facilitates the assessment of the protein integrity for a set of detergents via optical spectrophotometry. The native conformation of the protein is represented by a very strong peak at 875 nm in its absorption spectrum, while the intact RC but denatured LHI, or denatured LHI and RC, produce rather intense peaks at ˜800 nm and ˜760 nm, respectively.
# as §1
# For the purification, the detergent-solubilized protein samples were subjected to a metal affinity column chromatography and eluted with the elution buffer containing 1M imidazole and 1×CMC individual detergents. The UV-Visible spectra of the resulting protein samples were taken to investigate the integrity of detergent-purified LHI-RC complexes.
# as §2, §3
# [5] = Water solubility and hydrogel formation of amphiphiles; type: physicochemical
# Procedure: The amphiphiles prepared, except LDAO and DCAO, are water-soluble at up to 10 wt. %. […] DCAO was initially soluble, at approximately 1.0 wt. %, but tends to form a hydrogel over time at concentrations of greater than about 0.3 wt. %. Critical micelle concentration (CMC) values were estimated by using a hydrophobic fluorescent dye, diphenyhexatriene (DPH) (see Laible et al., Biochemistry 2003, 42, 1718-1730).
# The CMC values were determined for CAO-1 (˜7.2 mM; ˜0.38 wt. %) and DCAO-2 (˜1.1 mM; ˜0.056 wt. %), which are similar to those of their parent compounds, CAO and DCAO, respectively (see Table 2.1 above). […] All of these cholate and deoxycholate-based agents preserved the native conformation of the superassembly during protein solubilization and purification processes.
# [6] = estimated with DPH, Example 2, Table 2.1
# [7] = at CMC+0.04 wt. % and CMC+1.0 wt. %, 20 days
SMILES,"CMC [1, 6] [mM]","CMC (wt. %) [1, 6] [wt. %]",SY (%) Solubilization yield of LHI-RC complex from the membrane [2] [%],"long-term stability of superassembly (A875/A680), in words [3, 7]","CMC ([1]; Example 3, Table 3-2) [mM]","CMC (%) ([1]; Example 3, Table 3-2)",native structure of LHI-RC complexes after solubilization and purification (in words) [4],"long-term stability of superassembly (A875/A680), in words ([3]; detergent at CMC+0.04 wt. %)","long-term stability of superassembly (A875/A680), in words ([3]; detergent at CMC+1.0 wt. %)",native conformation retained by detergent-purified proteins [3] [%],water solubility (in words) [5],extraction/solubilization of LHI-RC complexes (in words) [2]
CC(CCC(=O)N(C)CCC[N+](C)(C)[O-])C1CCC2C3C(O)CC4CC(O)CCC4(C)C3CC(O)C12C (stereo not shown) [CAO-1],~7.2,~0.36,~20,clearly superior to DDM,,,,,,,,
CC(CCC(=O)NCCC[N+](C)(C)[O-])C1CCC2C3C(O)CC4CC(O)CCC4(C)C3CC(O)C12C (stereo not shown) [CAO],~8.3,~0.42,~30,clearly superior to DDM,7.1,0.36,fully retained as effectively as DDM,more stable than DDM-solubilized protein,efficacy difference between CAO and DDM was more prominent,,,
"C[C@H](CCC(=O)NCCC[N+](C)(C)CCCS(=O)(=O)[O-])[C@H]1CC[C@H]2[C@@H]3[C@H](O)C[C@@H]4C[C@H](O)CC[C@]4(C)[C@H]3C[C@H](O)[C@]12C [CHAPS, 3-[(3-cholamidopropyl)-dimethylammonio]-1-propanesulfonate, reference compound]",~8.0,,~50,,8,0.49,without structural degradation,,,~65,,
"C[C@H](CCC(=O)NCCC[N+](C)(C)CC(O)CS(=O)(=O)[O-])[C@H]1CC[C@H]2[C@@H]3[C@H](O)C[C@@H]4C[C@H](O)CC[C@]4(C)[C@H]3C[C@H](O)[C@]12C (stereo partly shown) [CHAPSO, 3-[(3-cholamidopropyl)-dimethylammonio]-2-hydroxy-1-propanesulfonate, reference compound]",,,~50,,8,0.5,,,,~65,,
"CCCCCCCCCCCCO[C@@H]1O[C@H](CO)[C@@H](O[C@H]2O[C@H](CO)[C@@H](O)[C@H](O)[C@H]2O)[C@H](O)[C@H]1O [DDM, n-dodecyl-β-D-maltoside, reference compound]",~0.17,~0.0087,~70,,,,,,,,,
"C[N+](C)([O-])CCCNC(=O)CC1(C2CCCC2)CCCCCC1 [DPA-1, 3-(2-(1-cyclopentylcycloheptyl)acetamido)-N,N-dimethylpropan-1-amine oxide]",~13,~0.24,~100,,,,A similar trend was observed,,,,,
"C[N+](C)([O-])CCCNC(=O)CC(c1ccccc1)c1ccccc1 [DPA-2, reference compound]",~78,~2.5,~15,,,,,,,,,
"C[N+](C)([O-])CCCNC(=O)CC(C1CCCCC1)C1CCCCC1 [DPA-3, reference compound]",~4.9,~0.17,~95,,,,protein degradation observed for DPA-3 was much less than that observed for DPA-1,,,,,
"CCCCCCCCCCCC[N+](C)(C)[O-] [LDAO, lauryldimethylamine oxide, reference compound]",~1.0,~0.023,~100,,,,native protein conformation mostly destroyed,,,,insoluble in water,extracted the complexes almost quantitatively
